# Source: patent US9700546B2, “Trivalent chromium compounds, compositions and methods of use” (INTERHEALTH NUTRACEUTICALS, INC., priority 2006, dated 2017)
# Assays:
# Obese Zucker rats [1] = experiment: In vivo assessment in obese Zucker rats: body weight and food intake; details: obese Zucker rats, daily 400 μg Cr(III)/kg, mean; for Food Intake 5 wks: at 5 weeks; for Food Intake 7 wks: at 7 weeks
# Obese Zucker rats [2] = experiment: In vivo assessment in obese Zucker rats: blood lipid profile (total cholesterol, triglycerides, HDL); details: daily 400 μg Cr(III)/kg, 8 weeks, mean
# Obese Zucker rats [3] = experiment: In vivo assessment in obese Zucker rats: other vascular inflammation markers (cAMP, TNFα, IL-6, OxyDNA); details: obese Zucker rats, daily 400 μg Cr(III)/kg, 8 weeks, mean ± SE; for OxyDNA: oxidative DNA damage
# Obese Zucker rats [4] = experiment: In vivo assessment in obese Zucker rats: vascular inflammation markers (MCP-1, CRP, RBP-4, leptin, ICAM, adiponectin); details: obese Zucker rats, daily 400 μg Cr(III)/kg, 8 weeks, mean; for Adiponectin / CRP / ICAM / MCP-1: plasma, ELISA
# Obese Zucker rats [5] = experiment: In vivo assessment in obese Zucker rats: key biological parameters (fasting glucose, HbA1c, vitamin C, GSH, RBC lipid peroxidation); details: obese Zucker rats, daily 400 μg Cr(III)/kg, 8 weeks, mean; for RBC Lipid Peroxidase: malondialdehyde by thiobarbituric acid; for Fasting Glucose: fasted overnight; for Vitamin C: plasma
Substance,Food Intake 5 wks (Obese Zucker rats [1]) [g/day],Food Intake 7 wks (Obese Zucker rats [1]) [g/day],HDL (Obese Zucker rats [2]) [mg/dL],Total Chol/HDL (Obese Zucker rats [2]) [ratio],Total Cholesterol (Obese Zucker rats [2]) [mg/dL],Triglyceride (Obese Zucker rats [2]) [mg/dL],IL-6 (Obese Zucker rats [3]) [pg/mL],cAMP (Obese Zucker rats [3]) [pmol/mL],OxyDNA (Obese Zucker rats [3]) [ng/mL],Leptin (Obese Zucker rats [4]) [pg/mL],RBP-4 (Obese Zucker rats [4]) [ng/mL],Adiponectin (Obese Zucker rats [4]) [ng/mL],CRP (Obese Zucker rats [4]) [ng/mL],ICAM (Obese Zucker rats [4]) [pg/mL],MCP-1 (Obese Zucker rats [4]) [pg/mL],RBC Lipid Peroxidase (Obese Zucker rats [5]) [nmol/mL],Fasting Glucose (Obese Zucker rats [5]) [mg/dL],GSH (Obese Zucker rats [5]) [µmol/g],HbA1c (Obese Zucker rats [5]) [%],Vitamin C (Obese Zucker rats [5]) [mg %]
Chromium Dinicotinate Aspartate [Cr(nic)2Asp],38.90,40.00,70.17,2.88,202.17,699.67,88.91 ± 2.25,27.95 ± 1.22,41.92 ± 1.46,406.15,57870.00,12078.33,602.51,17985.91,1431.68,2.02,496.33,5.15,15.62,0.12
"Chromium Dinicotinate Glycinate [Cr(nic)2Gly, reference compound]",34.29,37.14,64.57,3.00,193.14,610.33,91.96 ± 3.83,31.40 ± 1.57,45.62 ± 1.86,461.16,54900.00,12552.86,535.98,16691.40,2897.61,2.11,448.29,4.86,14.45,0.15
Chromium Dinicotinate Phenylalanine [Cr(nic)2Phe],38.16,39.22,70.43,2.87,201.71,583.00,84.82 ± 1.60,31.60 ± 1.22,40.63 ± 3.74,351.16,53891.43,12712.86,633.55,17480.50,1755.25,1.97,510.43,5.05,15.95,0.15
Chromium Dinicotinate Tryptophanate [Cr(nic)2Trp],40.49,40.78,69.43,2.86,183.17,470.67,92.09 ± 1.89,30.36 ± 1.48,39.35 ± 3.48,363.21,60017.14,11752.86,617.66,17950.97,2607.07,1.96,513.43,5.35,15.55,0.13
